According to article PMC7319089, “Multi-Component Comparative Pharmacokinetics in Rats After Oral Administration of Fructus aurantii Extract, Naringin, Neohesperidin, and Naringin-Neohesperidin” (Frontiers in Pharmacology, 2020):
Read-outs that look alike come from different tables or passages of the source.

Experiments:
[1] = design: method as in Wang et al., 2018; settings: after orally administering 30 g/kg FA decoction; ref Wang et al., 2018; cited from earlier work
[2] = Pharmacokinetics in SD rats after oral administration of FA extract, NA, NHE or NA-NHE (UPLC-MS/MS of plasma, DAS 3.1); type: in vivo, Sprague-Dawley (SD) rats; settings: for Shape of the plasma concentration-time profile: rats, oral administration, naringin and neohesperidin determined as naringenin and hesperetin
Method: The 20 μl of β-glucuronidase and 15 μl of sulfatase were added into 50 μl of plasma sample. After vortexed for 30 s, the mixture was incubated at 37°C for 2 h in a water bath, then placed in ice water for 5 min to terminate the reaction ([Xu et al., 2019]). IS solution (20 µl, 5 μg/ml) and acetonitrile (1.0 ml) were added into the mixture and vortexed for 2 min. […] Rats were randomly divided into the following four groups (6 rats in each group): naringin (NA), neohesperidin (NHE), naringin-neohesperidin (NA-NHE), and FA extract group. The oral administration doses were selected according to the literatures ([Tong et al., 2012]; [Yang et al., 2012]; [Committee of National Pharmacopoeia of RP China, 2015]; [Wang et al., 2018]; [Zhang et al., 2018]; [Chen et al., 2019]), the contents of the five components in FA, and the preliminary experiments. The specific doses were as follows: […] The rats had free access to water during the experiment. The blood samples were then immediately centrifuged at 4,000 rpm for 10 min. The plasma was frozen and stored at −80°C until analysis. The plasma concentration of the studied compounds was determined according to the daily calibration curve.

[3] = Stability of the analytes in rat plasma (QC samples); type: in vitro ADME; settings: n = 6; for Long-term Stability RE: -20 °C for one month; for Short-term Stability RE: room temperature 24 h; for Free–thaw Stability RE: three cycles -20 °C/room temperature
Method: The QC samples were assayed under several different conditions to evaluate the stability of the compounds in rat plasma. For the short-term stability, fresh plasma samples were kept at room temperature for 24 h before the sample preparation. After keeping the samples at room temperature for 24 h, post-preparation stability was tested. Freeze-thaw cycles (-20 °C/room temperature) stability were […] treated at -20°C for freezing-room temperature melting three times (repeated freezing and thawing three times). In each freeze-thaw cycle, the samples were frozen and stored at -20 °C for 24 h, and subsequently thawed at room. To evaluate the long-term stability of QC plasma samples, following storage at -20 °C for one month. The stability data were acceptable when the bias was within ±15% of the actual value ([Yuan et al., 2017]).

[4] = male SD rats, oral FA extract 10.8 g/kg of the original medicinal material, two-compartment model parameters, n = 6
[5] = male, Sprague-Dawley, rat, plasma, po, 10.8 g/kg, male SD rats, oral FA extract 10.8 g/kg of the original medicinal material, two-compartment model parameters, n = 6
[6] = male, Sprague-Dawley, rat, plasma, po, 10.8 g/kg, male SD rats, oral FA extract 10.8 g/kg of the original medicinal material, two-compartment model parameters, n = 6, read-out: AUC(0-t)
[7] = male, Sprague-Dawley, rat, plasma, po, 10.8 g/kg, male SD rats, oral FA extract 10.8 g/kg of the original medicinal material, two-compartment model parameters, n = 6, read-out: CL/F (converted)
[8] = male, Sprague-Dawley, rat, plasma, po, 10.8 g/kg, male SD rats, oral FA extract 10.8 g/kg of the original medicinal material, two-compartment model parameters, n = 6, read-out: t1/2β (converted)
[9] = SD rats, oral compatibility NA-NHE (naringin 1.85 g/kg and neohesperidin 1.81 g/kg), two-compartment parameters, n = 6
[10] = SD rats, oral monomer (naringin 1.85 g/kg or neohesperidin 1.81 g/kg), two-compartment parameters, n = 6
[11] = high QC concentration (3880 / 2946 / 2470 / 836 / 422.4 ng/mL)
[12] = low QC concentration (3.88 / 2.946 / 2.47 / 0.836 / 0.4224 ng/mL)
[13] = middle QC concentration (77.6 / 58.92 / 49.4 / 16.72 / 8.44 ng/mL)

Q: For `C[C@@H]1O[C@@H](O[C@H]2[C@H](Oc3cc(O)c4c(c3)O[C@H](c3ccc(O)cc3)CC4=O)O[C@H](CO)[C@@H](O)[C@@H]2O)[C@H](O)[C@H](O)[C@H]1O` [NA, naringin], which “Detection in rat plasma” value [1] is on record?
A: could not been detected

Q: What about the V1/F [2, 4] of the same compound?
A: 0.82 ± 0.06 L/kg

Q: What about the AUC(0-inf) [2, 5] of the same compound?
A: 20900 ± 3010 ng·h/mL

Q: And the AUC(0-t) [2, 6]?
A: 20700 ± 3010 ng·h/mL

Q: And the CL/F [2, 7]?
A: 13.8 mL/min/kg

Q: And the half-life [2, 8]?
A: 2.65 ± 0.18 h

Q: And the “Shape of the plasma concentration-time profile” value [2]?
A: Double-peak phenomenon

Q: What does the source list for `COc1ccc([C@@H]2CC(=O)c3c(O)cc(O[C@@H]4O[C@H](CO)[C@@H](O)[C@H](O)[C@H]4O[C@@H]4O[C@@H](C)[C@H](O)[C@@H](O)[C@H]4O)cc3O2)cc1O` [NHE, neohesperidin]?
A: Detection in rat plasma [1]: could not been detected; AUC(0-t) [2, 9]: 3475.14 ± 714.19 ng·h/mL; AUC(0-∞) [2, 9]: 3557.64 ± 726.84 ng·h/mL; CL/F [2, 9]: 60.5 ± 13.3 mL/min/kg; Ka [2, 9]: 4.40 ± 0.83 h⁻¹; V1/F [2, 9]: 4.37 ± 1.16 L/kg; t1/2(Ka) [2, 9]: 0.57 ± 0.11 h; t1/2α [2, 9]: 3.22 ± 0.42 h; t1/2β [2, 9]: 3.43 ± 0.55 h; AUC(0-t) [2, 10]: 2932.05 ± 625.03 ng·h/mL; AUC(0-∞) [2, 10]: 2988.05 ± 621.39 ng·h/mL; CL/F [2, 10]: 91.5 ± 12.2 mL/min/kg; Ka [2, 10]: 1.64 ± 0.35 h⁻¹; V1/F [2, 10]: 4.58 ± 1.18 L/kg; t1/2(Ka) [2, 10]: 0.96 ± 0.08 h; t1/2α [2, 10]: 4.39 ± 0.47 h; t1/2β [2, 10]: 4.61 ± 0.48 h; AUC(0-t) [2, 4]: 4345.39 ± 704.69 ng·h/mL; AUC(0-∞) [2, 4]: 4421.59 ± 723.98 ng·h/mL; CL/F [2, 4]: 68.2 ± 18.3 mL/min/kg; Ka [2, 4]: 3.17 ± 0.93 h⁻¹; V1/F [2, 4]: 7.17 ± 1.40 L/kg; t1/2(Ka) [2, 4]: 0.26 ± 0.07 h; t1/2α [2, 4]: 3.47 ± 0.51 h; t1/2β [2, 4]: 3.86 ± 0.32 h; Shape of the plasma concentration-time profile [2]: Double-peak phenomenon

Q: With `COc1ccc([C@@H]2CC(=O)c3c(O)cc(O)cc3O2)cc1O` [Hesperetin, hesperetin] as the compound, how does the MRT last ([2]; Sprague-Dawley, rat, plasma, male SD rats, oral FA extract 10.8 g/kg of the original medicinal material, statistical moment parameters, n = 6, read-out: MRT(0-t)) read?
A: 11.4 ± 0.37 h

Q: And the MRT inf ([2]; Sprague-Dawley, rat, plasma, male SD rats, oral FA extract 10.8 g/kg of the original medicinal material, statistical moment parameters, n = 6, read-out: MRT(0-∞))?
A: 11.7 ± 0.42 h

Q: What about the Vd/F ([2]; Sprague-Dawley, rat, plasma, male SD rats, oral FA extract 10.8 g/kg of the original medicinal material, statistical moment parameters, n = 6, read-out: Vz/F) of the same compound?
A: 12.2 ± 1.67 L/kg

Q: What about the Cmax ([2]; Sprague-Dawley, rat, male SD rats, oral FA extract 10.8 g/kg of the original medicinal material, plasma after β-glucuronidase/sulfatase hydrolysis, statistical moment parameters, n = 6) of the same compound?
A: 425 ± 11.1 ng/mL

Q: And the Ka [2, 4]?
A: 3.17 ± 0.93 h⁻¹

Q: And the V1/F [2, 4]?
A: 7.17 ± 1.40 L/kg

Q: What about the t1/2α [2, 4] of the same compound?
A: 3.47 ± 0.51 h

Q: What about the AUC(0-inf) ([2]; male, Sprague-Dawley, rat, plasma, po, 10.8 g/kg, male SD rats, oral FA extract 10.8 g/kg of the original medicinal material, statistical moment parameters, n = 6) of the same compound?
A: 4340 ± 326 ng·h/mL

Q: What about the AUC(0-t) ([2]; male, Sprague-Dawley, rat, plasma, po, 10.8 g/kg, male SD rats, oral FA extract 10.8 g/kg of the original medicinal material, statistical moment parameters, n = 6, read-out: AUC(0-t)) of the same compound?
A: 4300 ± 315 ng·h/mL

Q: What about the CL/F ([2]; male, Sprague-Dawley, rat, plasma, po, 10.8 g/kg, male SD rats, oral FA extract 10.8 g/kg of the original medicinal material, statistical moment parameters, n = 6, read-out: CLz/F (converted)) of the same compound?
A: 41.7 mL/min/kg

Q: And the Tmax ([2]; male, Sprague-Dawley, rat, plasma, po, 10.8 g/kg, male SD rats, oral FA extract 10.8 g/kg of the original medicinal material, statistical moment parameters, n = 6, read-out: Tmax)?
A: 9.67 ± 0.82 h

Q: And the half-life ([2]; male, Sprague-Dawley, rat, plasma, po, 10.8 g/kg, male SD rats, oral FA extract 10.8 g/kg of the original medicinal material, statistical moment parameters, n = 6, read-out: t1/2z (converted))?
A: 3.4 ± 0.46 h

Q: What about the AUC(0-inf) [2, 5] of the same compound?
A: 4420 ± 724 ng·h/mL

Q: What about the AUC(0-t) [2, 6] of the same compound?
A: 4350 ± 705 ng·h/mL

Q: And the CL/F [2, 7]?
A: 68.2 mL/min/kg

Q: What about the half-life [2, 8] of the same compound?
A: 3.86 ± 0.32 h

Q: What about the “Shape of the plasma concentration-time profile” value [2] of the same compound?
A: double peaks

Q: What about the “Long-term Stability RE” value [3, 11] of the same compound?
A: -7.81%

Q: What about the “Long-term Stability RE” value [3, 12] of the same compound?
A: 5.03%

Q: What about the “Long-term Stability RE” value [3, 13] of the same compound?
A: -8.58%

Q: What about the “Short-term Stability RE” value [3, 11] of the same compound?
A: -13.50%

Q: What about the “Short-term Stability RE” value [3, 12] of the same compound?
A: 4.10%

Q: And the “Short-term Stability RE” value [3, 13]?
A: -9.20%

Q: What about the “Free–thaw Stability RE” value [3, 11] of the same compound?
A: -12.68%

Q: What about the “Free–thaw Stability RE” value [3, 12] of the same compound?
A: 7.78%

Q: What about the “Free–thaw Stability RE” value [3, 13] of the same compound?
A: -10.70%
